The numbers were not newly measured in US4981695A, “Composition comprising L-dopa” (priority 1986, dated 1991), which cites them from elsewhere.

The structures appear in SMILES notation.

For series [1] the following is noted: background.
A further series deals with Parkinsons disease. The conditions noted are these: particularly tremor; background.

`N[C@@H](Cc1ccc(O)c(O)c1)C(=O)O` [L-dopa, L-3,4-dihydroxyphenylalanine]: in series [1], the “decomposition by carboxylic elimination” value is given as “rapidly decomposed by carboxylic elimination”. Moreover, the “resorption (absorption window)” value in series [1] (gastro-intestinal tract) is “resorbed over a restricted part of the gastro-intestinal tract”. In addition, in the series on Parkinsons disease, the “inhibition of symptoms of the Parkinsons disease” value is recorded as “active at the inhibition of symptoms of the Parkinsons disease”.

Turning to `NC(CO)C(=O)NNCc1ccc(O)c(O)c1O` (centres unmarked) [benserazide], the “L-dopa dose on adding a decarboxylase inhibitor” value in series [1] was “considerably reduced”.

On to `C[C@@](Cc1ccc(O)c(O)c1)(NN)C(=O)O` [carbidopa], for which the “L-dopa dose on adding a decarboxylase inhibitor” value in series [1] is on record as “considerably reduced”.
